The test addresses Smo (Homo sapiens, UniProt Q99835). Kind of test: Bodipy-Cyclopamine Binding Assay (confirmation assay), Hek293-SMO cells.

Each structure is given as a SMILES string. pIC50: −log10 of the molar value. Where only a bound is given, the exact number is not on record here.

IC50 data for 32 molecules are collected here from US9695178B2, “6-(2-pyridyl)-7,8-dihydro-5H-pyrido[4,3-D]pyrimidine analogs as hedgehog pathway signaling inhibitors and therapeutic applications thereof” (Suzhou Yunxuan Yiyao Keji Youxian Gongsi, priority 2013, dated 2017).

A word on the pIC50: it is −log10 of the IC50, conventionally taken in molar units.

Smo, sequence (Q99835 28-787): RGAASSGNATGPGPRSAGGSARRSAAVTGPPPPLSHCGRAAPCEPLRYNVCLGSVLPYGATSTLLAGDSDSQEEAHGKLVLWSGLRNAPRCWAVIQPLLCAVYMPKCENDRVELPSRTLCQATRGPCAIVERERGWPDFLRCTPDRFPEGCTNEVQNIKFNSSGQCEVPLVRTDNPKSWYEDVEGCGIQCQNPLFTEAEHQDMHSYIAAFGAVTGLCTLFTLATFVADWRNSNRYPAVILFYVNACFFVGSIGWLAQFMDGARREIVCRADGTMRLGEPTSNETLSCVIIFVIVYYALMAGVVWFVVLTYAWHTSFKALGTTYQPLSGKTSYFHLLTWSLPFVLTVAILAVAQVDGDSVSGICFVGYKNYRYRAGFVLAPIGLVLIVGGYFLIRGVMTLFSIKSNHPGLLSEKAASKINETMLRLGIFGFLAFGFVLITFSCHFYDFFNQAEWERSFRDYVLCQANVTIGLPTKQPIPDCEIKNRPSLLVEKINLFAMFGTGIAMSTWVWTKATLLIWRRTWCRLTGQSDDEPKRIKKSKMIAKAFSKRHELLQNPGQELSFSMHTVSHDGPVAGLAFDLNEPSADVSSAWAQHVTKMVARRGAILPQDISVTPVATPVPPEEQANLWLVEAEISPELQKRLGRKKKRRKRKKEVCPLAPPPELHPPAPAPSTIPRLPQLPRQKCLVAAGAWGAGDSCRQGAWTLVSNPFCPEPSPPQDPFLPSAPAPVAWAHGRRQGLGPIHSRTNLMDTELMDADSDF
Procedure: The confirmation assay is based on Bodipy-Cyclopamine Binding Assay:
Bodipy-Cyclopamine binding assay is a fluorescence based assay used to analysis the binding of Smo agonists. […] Bodipy-Cyclopamine was purchased from Toronto Research Chemicals and dissolved in methanol.
Hek293-SMO cells were plated in 96-well-plate (3340, Corning), the final cell concentration is 15,000 cells/well in 100 ul 1% serum-containing DMEM. The plates were incubated in 37 degree for additional 48 hours.
Hek293-SMO plate were washed with PBS and fixed with 4% paraformaldehyde (PFA)/PBS for 20 min at room temperature. After removing the PFA buffer, the cells were incubated with DAPI/PBS (5 ug/mL) for 10 min and followed by twice wash with PBS. After wash, cells were incubated for 2 h at room temperature in binding buffer (HBSS W/O Ca^2+ and Mg^2+) containing 100 nM bodipy-cyclopamine and compounds over a range of concentrations from 0-10 μM for competitive binding. After incubation, the cells were washed twice with the PBS. The fluorescence images were automatically captured and analyzed by a high content fluorescence imaging system (Arrayscan VTI, Thermo). GDC-0449 was used as reference compound to normalize the data. IC50 values were calculated with GraphPad Prism software using the sigmoidal dose-response function. The Ki was calculated following the Cheng-Prusoff equation, as Ki=IC50/[1+[bodipy-cyclopamine]/Kd)].

Turning to `Cc1cnc(-c2cc(N3CCc4nc(NCC5CC5)sc4C3)ncc2Cl)c(C)c1` [Compound A-31, 5-(5′-chloro-3,5-dimethyl-2,4′-bipyridin-2′-yl)-N-(cyclopro-pylmeth-yl)-4,5,6,7-tetrahydro-thiazolo-[5,4-c]pyridin-2-amine], the pIC50 was 7.26. For `Cc1cnc(-c2cc(N3CCc4nc(N5CCC(O)CC5)sc4C3)ncc2Cl)c(C)c1` [Compound A-32, 1-(5-(5′-chloro-3,5-dimethyl-2,4′-bipyridin-2′-yl)-4,5,6,7-tetrahydro-thiazolo-[5,4-c]pyridin-2-yl)piperidin-4-ol] the value was 7.06.

In turn, `Cc1cnc(-c2cc(N3CCc4nc(N5CC(C)OC(C)C5)sc4C3)ncc2Cl)c(C)c1` (centres unmarked) [Compound A-33, 4-(5-(5′-chloro-3,5-dimethyl-2,4′-bipyridin-2′-yl)-4,5,6,7-tetrahydro-thiazolo-[5,4-c]pyridin-2-yl)-2,6-dimethyl-morpholine] had a pIC50 of 6.35. This pIC50 lies 0.71 log units lower than the previous one. Molecule `Cc1cnc(-c2cc(N3CCc4nc(N5CCCC5)sc4C3)ncc2Cl)c(C)c1` [Compound A-34, 5-(5′-chloro-3,5-dimethyl-2,4′-bipyridin-2′-yl)-2-(pyrrolidin-1-yl)-4,5,6,7-tetrahydro-thiazolo-[5,4-c]pyridine] had a pIC50 of 6.43. The pIC50 values of the last two molecules are within 0.2 log units of each other. Molecule `CCNc1nc2c(s1)CN(c1cc(-c3ncc(C)cc3C)c(Cl)cn1)CC2` [Compound A-35, 5-(5′-chloro-3,5-dimethyl-2,4′-bipyridin-2′-yl)-N-ethyl-4,5,6,7-tetrahydro-thiazolo-[5,4-c]pyridin-2-amine] had a pIC50 of 6.59. `Cc1cnc(-c2cc(N3CCc4nc(-n5cccn5)sc4C3)ncc2Cl)c(C)c1` [Compound A-36, 5-(5′-chloro-3,5-dimethyl-2,4′-bipyridin-2′-yl)-2-(1H-pyrazol-1-yl)-4,5,6,7-tetrahydro-thiazolo-[5,4-c]pyridine] had a pIC50 of 6.25. Turning to `CCOC(=O)Nc1nc2c(s1)CN(c1cc(-c3ncc(C)cc3C)c(Cl)cn1)CC2` [Compound A-37, ethyl 5-(5′-chloro-3,5-dimethyl-2,4′-bipyridin-2′-yl)-4,5,6,7-tetrahydro-thiazolo-[5,4-c]pyridin-2-ylcarbamate], the pIC50 is 6.31. On to `Cc1cnc(-c2cc(N3CCc4nc(NC(=O)C(F)(F)F)sc4C3)ncc2Cl)c(C)c1` [Compound A-38, N-(5-(5′-chloro-3,5-dimethyl-2,4′-bipyridin-2′-yl)-4,5,6,7-tetrahydro-thiazolo-[5,4-c]pyridin-2-yl)-2,2,2-trifluoro-acetamide], for which the pIC50 is < 6.00.

As to `Cc1cnc(-c2cc(N3CCc4nc(NC(=O)CCN5CCOCC5)sc4C3)ncc2Cl)c(C)c1` [Compound A-39, N-(5-(5′-chloro-3,5-dimethyl-2,4′-bipyridin-2′-yl)-4,5,6,7-tetrahydro-thiazolo-[5,4-c]pyridin-2-yl)-3-morpholino-propan-amide], the pIC50 was 6.87. For `Cc1cnc(-c2cc(N3CCc4nc(NC(=O)CCN5CCCCC5)sc4C3)ncc2Cl)c(C)c1` [Compound A-40, N-(5-(5′-chloro-3,5-dimethyl-2,4′-bipyridin-2′-yl)-4,5,6,7-tetrahydro-thiazolo-[5,4-c]pyridin-2-yl)-3-(piperidin-1-yl)propanamide], the pIC50 was 6.82. In the case of `Cc1cnc(-c2cc(N3CCc4nc(NC(=O)CCN(C)C)sc4C3)ncc2Cl)c(C)c1` [Compound A-41, N-(5-(5′-chloro-3,5-dimethyl-2,4′-bipyridin-2′-yl)-4,5,6,7-tetrahydro-thiazolo-[5,4-c]pyridin-2-yl)-3-(dimethyl-amino)-propanamide], the negative logarithm of the IC50 (pIC50) was 6.76.

`CCNC(=O)Nc1nc2c(s1)CN(c1cc(-c3ncc(C)cc3C)c(Cl)cn1)CC2` [Compound A-42, 1-(5-(5′-chloro-3,5-dimethyl-2,4′-bipyridin-2′-yl)-4,5,6,7-tetrahydro-thiazolo-[5,4-c]pyridin-2-yl)-3-ethylurea]: the pIC50 is 6.72. This pIC50 and that of the molecule before are within 0.2 log units of each other. Turning to `Cc1cnc(-c2cc(N3CCc4nc(NC(=O)NC(C)C)sc4C3)ncc2Cl)c(C)c1` [Compound A-43, 1-(5-(5′-chloro-3,5-dimethyl-2,4′-bipyridin-2′-yl)-4,5,6,7-tetrahydro-thiazolo-[5,4-c]pyridin-2-yl)-3-isopropylurea], the pIC50 is 6.70.

`C=CC(=O)Nc1nc2c(s1)CN(c1cc(-c3ncc(C)cc3C)c(Cl)cn1)CC2` [Compound A-44, N-(5-(5′-chloro-3,5-dimethyl-2,4′-bipyridin-2′-yl)-4,5,6,7-tetrahydro-thiazolo-[5,4-c]pyridin-2-yl)acrylamide]: the pIC50 was < 6.00. In the case of `Cc1cnc(-c2cc(N3CCc4nc(NS(C)(=O)=O)sc4C3)ncc2Cl)c(C)c1` [Compound A-45, N-(5-(5′-chloro-3,5-dimethyl-2,4′-bipyridin-2′-yl)-4,5,6,7-tetrahydro-thiazolo-[5,4-c]pyridin-2-yl)methane-sulfon-amide], the negative-log IC50 (pIC50) is < 6.00. With `Cc1cnc(-c2cc(N3CCc4nc(OC5CCC5)sc4C3)ncc2Cl)c(C)c1` [Compound A-47, 5-(5′-chloro-3,5-dimethyl-2,4′-bipyridin-2′-yl)-2-cyclobutoxy-4,5,6,7-tetrahydro-thiazolo-[5,4-c]pyridine], the negative-log IC50 (pIC50) is 7.05. The same measure for `Cc1cnc(-c2cc(N3CCc4nc(Nc5ccccc5)sc4C3)ncc2Cl)c(C)c1` [Compound A-48, 5-(5′-chloro-3,5-dimethyl-2,4′-bipyridin-2′-yl)-N-phenyl-4,5,6,7-tetrahydro-thiazolo-[5,4-c]pyridin-2-amine]: 6.48; for `CNc1ncc2c(n1)CCN(c1cc(-c3ncc(C)cc3C)c(Cl)cn1)C2` [Compound A-50, 6-(5′-chloro-3,5-dimethyl-2,4′-bipyridin-2′-yl)-N-methyl-5,6,7,8-tetrahydro-pyrido-[4,3-d]pyrimidin-2-amine]: 6.64; for `CCNc1ncc2c(n1)CCN(c1cc(-c3ncc(C)cc3C)c(Cl)cn1)C2` [Compound A-51, 6-(5′-chloro-3,5-dimethyl-2,4′-bipyridin-2′-yl)-N-ethyl-5,6,7,8-tetrahydro-pyrido-[4,3-d]pyrimidin-2-amine]: 7.77. `Cc1cnc(-c2cc(N3CCc4nc(NC5CC5)ncc4C3)ncc2Cl)c(C)c1` [Compound A-52, 6-(5′-chloro-3,5-dimethyl-2,4′-bipyridin-2′-yl)-N-cyclopropyl-5,6,7,8-tetrahydropyrido[4,3-d]pyrimidin-2-amine]: the pIC50 was 8.27. In turn, `Cc1cnc(-c2cc(N3CCc4nc(N5CCCC5)ncc4C3)ncc2Cl)c(C)c1` [Compound A-53, 6-(5′-chloro-3,5-dimethyl-2,4′-bipyridin-2′-yl)-2-(pyrrolidin-1-yl)-5,6,7,8-tetrahydro-pyrido-[4,3-d]pyrimidine] showed a pIC50 of 7.60. Against the preceding molecule, the pIC50 is 0.67 log units lower. Take `Cc1cnc(-c2cc(N3CCc4nc(N(C)CCO)ncc4C3)ncc2Cl)c(C)c1` [Compound A-54, 2-((6-(5′-chloro-3,5-dimethyl-2,4′-bipyridin-2′-yl)-5,6,7,8-tetrahydro-pyrido-[4,3-d]pyrimidin-2-yl)(methyl)-amino)ethanol]: the pIC50 was 7.64. `Cc1cnc(-c2cc(N3CCc4nc(N5CCC(O)CC5)ncc4C3)ncc2Cl)c(C)c1` [Compound A-55, 1-(6-(5′-chloro-3,5-dimethyl-2,4′-bipyridin-2′-yl)-5,6,7,8-tetrahydro-pyrido-[4,3-d]pyrimidin-2-yl)piperidin-4-ol] had a pIC50 of 8.29.

As to `Cc1cnc(-c2cc(N3CCc4nc(N5CCOCC5)ncc4C3)ncc2Cl)c(C)c1` [Compound A-56, 4-(6-(5′-chloro-3,5-dimethyl-2,4′-bipyridin-2′-yl)-5,6,7,8-tetrahydro-pyrido-[4,3-d]pyrimidin-2-yl)morpholine], the pIC50 is 7.31.

On to `Cc1cnc(-c2cc(N3CCc4nc(N5CC(C)NC(C)C5)ncc4C3)ncc2Cl)c(C)c1` (centres unmarked) [Compound A-57, 6-(5′-chloro-3,5-dimethyl-2,4′-bipyridin-2′-yl)-2-(3,5-dimethyl-piperazin-1-yl)-5,6,7,8-tetrahydro-pyrido-[4,3-d]pyrimidine], for which the pIC50 was 7.95. Compared with the last molecule, the pIC50 is 0.64 log units higher.

`Cc1cnc(-c2cc(N3CCc4nc(N(C)S(C)(=O)=O)ncc4C3)ncc2Cl)c(C)c1` [Compound A-58, N-(6-(5′-chloro-3,5-dimethyl-2,4′-bipyridin-2′-yl)-5,6,7,8-tetrahydro-pyrido-[4,3-d]pyrim-idin-2-yl)-N-methylmethane-sulfonamide] had a pIC50 of 7.22.

Molecule `Cc1cnc(-c2cc(N3CCc4nc(-n5cccn5)ncc4C3)ncc2Cl)c(C)c1` [Compound A-59, 6-(5′-chloro-3,5-dimethyl-2,4′-bipyridin-2′-yl)-2-(1H-pyrazol-1-yl)-5,6,7,8-tetrahydro-pyrido-[4,3-d]pyrim-idine] had a pIC50 of 7.31.

The molecule `Cc1cnc(-c2cc(N3CCc4nc(NC(C)C)ncc4C3)ncc2Cl)c(C)c1` [Compound A-60, 6-(5′-chloro-3,5-dimethyl-2,4′-bipyridin-2′-yl)-N-isopropyl-5,6,7,8-tetrahydro-pyrido-[4,3-d]pyrimidin-2-amine] gave a pIC50 of 7.74. `Cc1cnc(-c2cc(N3CCc4nc(NC(C)(C)C)ncc4C3)ncc2Cl)c(C)c1` [Compound A-61, N-tert-butyl-6-(5′-chloro-3,5-dimethyl-2,4′-bipyridin-2′-yl)-5,6,7,8-tetrahydro-pyrido-[4,3-d]pyrimidin-2-amine]: the pIC50 was 7.85. As to `Cc1cnc(-c2cc(N3CCc4nc(Nc5ccccc5)ncc4C3)ncc2Cl)c(C)c1` [Compound A-62, 6-(5′-chloro-3,5-dimethyl-2,4′-bipyridin-2′-yl)-N-phenyl-5,6,7,8-tetrahydro-pyrido-[4,3-d]pyrimidin-2-amine], the pIC50 is 7.29.

Take `CSc1ncc2c(n1)CCN(c1cc(-c3ncc(C)cc3C)c(Cl)cn1)C2` [Compound A-63, 6-(5′-chloro-3,5-dimethyl-2,4′-bipyridin-2′-yl)-2-(methylthio)-5,6,7,8-tetrahydro-pyrido-[4,3-d]pyrimidine]: the pIC50 was 7.06. Take `Cc1cnc(-c2cc(N3CCc4nc(S(C)(=O)=O)ncc4C3)ncc2Cl)c(C)c1` [Compound A-64, 6-(5′-chloro-3,5-dimethyl-2,4′-bipyridin-2′-yl)-2-(methyl-sulfonyl)-5,6,7,8-tetrahydro-pyrido-[4,3-d]pyrim-idine]: the pIC50 is 6.30. This pIC50 is 0.76 log units lower than that of the molecule before.
